Results: patent US20260354380A1, “PYRAZOLO PESTICIDAL COMPOUNDS” (BASF SE, priority 2022, published 2026)

Key:
Assay type in all cases: in vivo
Dichromothrips corbetti = assay: Action on Orchid Thrips (Dichromothrips corbetti); settings: 300 ppm; adults; 72 hours after treatment
Experimental: Example B2: Action on Orchid Thrips (Dichromothrips corbetti)
Dichromothrips corbetti adults used for bioassay were obtained from a colony maintained continuously under laboratory conditions. For testing purposes, the test compound is diluted in a 1:1 mixture of acetone: water (vol: vol), plus Kinetic® HV at a rate of 0.01% v/v.
Thrips potency of each compound was evaluated by using a floral-immersion technique. All petals of individual, intact orchid flowers were dipped into treatment solution and allowed to dryin Petri dishes. Treated petals were placed into individual re-sealable plastic along with about 20 adult thrips. All test arenas were held under continuous light and a temperature of about 28 °C for duration of the assay. After 3 days, the numbers of live thrips were counted on each petal. The percent mortality was recorded 72 hours after treatment.

Aedes aegypti = assay: whole plant or invertebrate; settings: 800 ppm; larvae; 2 days
Procedure, shortened: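 Visual larval mortality was assessed 2 days after treatment (28±1 °C, 80±5% RH). Formulations of compounds or mixtures (75% water/25% DMSO) were applied by micro-atomizer onto diet of 5-15 newly hatched larvae per water-filled well, two replicates per concentration.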

Plutella xylostella [1] = assay: Action on Diamond Back Moth (Plutella xylostella), microtiter plates, insect diet, eggs; settings: 800 ppm; egg and larval mortality; 5 days
Procedure, shortened: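 Diet in 96-well plates with 15–25 P. xylostella eggs, sprayed with compound formulated in 75% water/25% DMSO at several concentrations, two replicates; mixtures combined in equal volumes. Incubated 5 days at 28±1 °C, 80±5% RH, then egg and larval mortality scored visually.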

Spodoptera eridania = assay: Action on Southern Armyworm (Spodoptera eridania), 2nd Instar Larvae; settings: 300 ppm; 2nd instar larvae; 4 days after treatment
Procedure, shortened: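 2nd-instar Spodoptera eridania larvae (about 10–11 per pot) confined on sprayed, dried Lima bean plants (1st true leaf stage) in sealed bags. Spray solutions: acetone/water 1:1 plus 0.01% surfactant. Held 4 days near 25 °C, 20–40% RH; assessed for mortality and feeding reduction against untreated controls.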

Heliothis virescens = assay: Action on Tobacco Budworm (Heliothis virescens); settings: 800 ppm; egg and larval mortality; 5 days
Procedure, shortened: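 Eggs (15-25 per well) on diet were held 5 days at about 28±1 °C, 80±5% RH, then egg and larval mortality was scored by eye. Beforehand the diet had been sprayed with compound dilutions formulated in water/DMSO 75:25 v/v, in two replicates.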

Anthonomus grandis = assay: Action on Boll Weevil (Anthonomus grandis); settings: 800 ppm; egg and larval mortality; 5 days
Procedure, shortened: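 Diet in 96-well plates, seeded with 5-10 A. grandis eggs, received a spray of formulated compound (25% DMSO in water) at a range of concentrations, duplicated. Mortality of eggs and larvae was judged by eye after 5 days at about 25±1 °C, 75±5% relative humidity.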

Plutella xylostella [2] = assay: Action on Diamond Back Moth (Plutella xylostella), cabbage leaf dip, 3rd instar larvae; settings: 300 ppm; 3rd instar larvae; 72 hours after treatment
Procedure, shortened: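 Cabbage leaves dipped in compound solution (1:1 water:acetone, 0.01% v/v surfactant), air-dried, then infested with ten 3rd-instar larvae in petri dishes on moist filter paper. Mortality scored at 72 h after treatment; feeding damage rated on a 0–100% scale.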

Bemisia argentifolii = assay: Action on Silverleaf Whitefly (Bemisia argentifolii) (Adults); settings: 300 ppm, 3 days after treatment
Experimental: Example B4: Action on Silverleaf Whitefly (Bemisia argentifolii) (Adults)
The active compounds were formulated by a Tecan liquid handler in 100% cyclohexanone as a 10,000 ppm solution supplied in tubes. The 10,000 ppm solution was serially diluted in 100% cyclohexanone to make interim solutions. These served as stock solutions for which final dilutions were made by the Tecan in 50% acetone: 50% water (v/v) into 5 or 10 ml glass vials. A nonionic surfactant (Kinetic®) was included in the solution at a volume of 0.01% (v/v). The vials were then inserted into an automated electrostatic sprayer equipped with an atomizing nozzle for application to plants/insects.
Cotton plants at the cotyledon stage (one plant per pot) were sprayed by an automated electrostatic plant sprayer equipped with an atomizing spray nozzle. The plants were dried in the sprayer fume hood and then removed from the sprayer. Each pot was placed into a plastic cup and about 10 to 12 whitefly adults (approximately 3-5 days old) were introduced. The insects were collected using an aspirator and a nontoxic Tygon® tubing connected to a barrier pipette tip. The tip, containing the collected insects, was then gently inserted into the soil containing the treated plant, allowing insects to crawl out of the tip to reach the foliage for feeding. […] Mortality was assessed 3 days after treatment, compared to untreated control plants.

Cc1ccc(C(C)C)c(N2C(=O)CSC2=NC(=O)Nc2ccc(-n3nc(C)c(N(CC4CC4)C(=O)c4ccc(OC(F)(F)F)cc4)c3C)cc2Cl)c1 [Example C-46]
mortality in comparison with untreated controls (Dichromothrips corbetti): at least 75%
mortality in comparison with untreated controls (Aedes aegypti): at least 50%
mortality in comparison with untreated controls (Plutella xylostella [1]): at least 75%
mortality in comparison with untreated controls (Spodoptera eridania): at least 75%
mortality in comparison with untreated controls (Heliothis virescens): at least 75%
mortality in comparison with untreated controls (Anthonomus grandis): at least 75%

Cc1ccc(C(C)C)c(N2C(=O)CS/C2=N\C(=O)Nc2ccc(-n3cc(NC(=O)c4ccc(OC(F)(F)F)cc4)c(C)n3)cc2F)c1 [Example C-6]
mortality in comparison with untreated controls (Plutella xylostella [2]): at least 75%
mortality in comparison with untreated controls (Dichromothrips corbetti): at least 75%
mortality in comparison with untreated controls (Aedes aegypti): at least 50%
mortality in comparison with untreated controls (Bemisia argentifolii): at least 75%
mortality in comparison with untreated controls (Spodoptera eridania): at least 75%
mortality in comparison with untreated controls (Heliothis virescens): at least 75%
mortality in comparison with untreated controls (Anthonomus grandis): at least 75%

Cc1ccc(C(C)C)c(N2C(=O)CS/C2=N\C(=O)Nc2cc(F)c(-n3nc(C)c(NC(=O)c4ccc(OC(F)(F)F)cc4)c3C)cc2Cl)c1 [Example C-104]
mortality in comparison with untreated controls (Dichromothrips corbetti): at least 75%
mortality in comparison with untreated controls (Aedes aegypti): at least 50%
mortality in comparison with untreated controls (Plutella xylostella [1]): at least 75%
mortality in comparison with untreated controls (Spodoptera eridania): at least 75%
mortality in comparison with untreated controls (Heliothis virescens): at least 75%
mortality in comparison with untreated controls (Anthonomus grandis): at least 75%

Cc1ccc(C(C)C)c(N2C(=O)CSC2=NC(=O)Nc2ccc(-n3nc(C)c(NC(=O)c4ccc(OC(F)(F)F)cc4)c3C)c(Cl)c2Cl)c1 [Example C-123]
mortality in comparison with untreated controls (Dichromothrips corbetti): at least 75%
mortality in comparison with untreated controls (Aedes aegypti): at least 50%
mortality in comparison with untreated controls (Plutella xylostella [1]): at least 75%
mortality in comparison with untreated controls (Spodoptera eridania): at least 75%
mortality in comparison with untreated controls (Heliothis virescens): at least 75%
mortality in comparison with untreated controls (Anthonomus grandis): at least 75%
